According to US9751869B2, “LXR modulators” (BRISTOL-MYERS SQUIBB COMPANY, priority 2013, dated 2017):

Target: T1, LXRβ (Homo sapiens, UniProt P55055)
T1 construct: Co-transfection expression plasmids, comprising full-length LXRα (pCMX-h LXRα or LXRβ (pCMX-hLXRβ)); expressed in transfected cells; host or cells: CV-1 African green monkey kidney cells, transient transfection with pCMX-hLXRβ
T1 sequence (P55055 1-460): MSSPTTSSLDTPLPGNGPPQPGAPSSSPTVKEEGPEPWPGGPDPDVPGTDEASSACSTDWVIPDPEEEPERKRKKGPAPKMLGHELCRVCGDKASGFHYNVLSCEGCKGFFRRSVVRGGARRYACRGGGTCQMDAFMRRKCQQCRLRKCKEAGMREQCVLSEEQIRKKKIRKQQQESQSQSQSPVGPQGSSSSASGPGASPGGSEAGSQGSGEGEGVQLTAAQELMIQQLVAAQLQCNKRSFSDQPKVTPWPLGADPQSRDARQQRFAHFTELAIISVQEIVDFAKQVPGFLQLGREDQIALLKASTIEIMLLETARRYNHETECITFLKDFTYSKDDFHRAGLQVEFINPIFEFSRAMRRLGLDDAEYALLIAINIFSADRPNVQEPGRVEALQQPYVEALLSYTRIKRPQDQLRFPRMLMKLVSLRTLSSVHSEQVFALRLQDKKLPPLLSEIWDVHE
T1 sequence (P19793 1-462 partner): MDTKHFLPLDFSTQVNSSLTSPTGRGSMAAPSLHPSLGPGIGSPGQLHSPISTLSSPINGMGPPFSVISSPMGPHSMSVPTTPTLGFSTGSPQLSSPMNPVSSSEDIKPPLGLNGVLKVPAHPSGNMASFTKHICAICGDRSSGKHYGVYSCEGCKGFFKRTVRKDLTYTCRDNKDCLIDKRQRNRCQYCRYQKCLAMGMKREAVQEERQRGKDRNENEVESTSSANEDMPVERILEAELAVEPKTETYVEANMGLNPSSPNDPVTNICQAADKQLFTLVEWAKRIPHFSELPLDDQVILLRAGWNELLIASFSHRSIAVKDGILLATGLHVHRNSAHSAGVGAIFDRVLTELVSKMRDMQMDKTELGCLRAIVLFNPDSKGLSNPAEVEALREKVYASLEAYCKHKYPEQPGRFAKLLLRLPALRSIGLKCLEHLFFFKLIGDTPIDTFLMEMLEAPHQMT
Assay: LXR/LXRE co-transfection assay (luciferase reporter) in CV-1 cells, LXRβ
Assay type: cell-based
Settings: for EC50: CV-1 cells transfected with pCMX-hLXRβ and LXREx1-Tk-Luciferase, 20 hours incubation, read-out: LXRbeta agonism EC50; for Emax: read-out: LXRbeta % EFFICACY
Excerpt: To measure the ability of compounds to activate or inhibit the transcriptional activity of LXR in a cell based assay, the co-transfection assay was used. It has been shown that LXR functions as a heterodimer with RXR. For the co-transfection assay, expression plasmids for LXRα and LXRβ are introduced separately via transient transfection into mammalian cells along with a luciferase reporter plasmid that contains one copy of a DNA sequence that is bound by LXR-RXR heterodimers (LXRE; Willy, P. et. al. 1995). LXRs heterodimerize with the endogenous RXR. Treatment of transfected cells with an LXR agonist increases the transcriptional activity of LXR, which is measured by an increase in luciferase activity.
Co-transfection expression plasmids, comprising full-length LXRα (pCMX-h LXRα or LXRβ (pCMX-hLXRβ), reporter plasmid (LXREx1-Tk-Luciferase), and control (pCMX-Galactosidase expression vector) (Willey et al. Genes & Development 9 1033-1045 (1995)).
CV-1 cells were prepared 24 hours prior to the experiment by plating them into T-175 flasks or 500 cm^2 dishes in order to achieve 70-80% confluency on the day of the transfection. The number of cells to be transfected was determined by the number of plates to be screened. Each well of a 384 well plate requires 1.5×10^4 cells. DNA Transfection Reagent was prepared by mixing the required plasmid DNAs with a cationic lipid transfection reagent Transit 2020 (Mirus Bio) for CV1 by following the instructions provided with the reagents. Optimal DNA amounts were determined empirically per cell line and size of vessel to be transfected. For each T175 cm^2 flask a total of 44.4 ug for CV1 of DNA, 133 ul Transit2020 and 4.5 ml DMEM for CV1 was mixed and added. Cells were then incubated at least 5 hours at 37° C. to prepare screening cells.
Assay plates were prepared by dispensing 5 μL of compound per well of a 384 well plate to achieve final compound concentration of 10 μM and no more than 0.5% DMSO. Media was removed from the screening cells, the cells trypsinized, harvested cells by centrifugation, counted, and plated at a density of approximately 1.5×10^4 cells in the 384 well assay plate prepared above in a volume of about 95 uL. Assay plates containing both compounds and screening cells (100 μL in total volume) were incubated for 20 hours at 37° C.
After incubation with compounds, media was removed from the cells and luciferase assay reagent (30 μL/well) added. After ˜2 minutes at ambient temperature, the assay plates were read on a luminometer (PE Biosystems Northstar reader with on-board injectors, or Envision (Perkin Elmer) or equivalent).
The LXR/LXRE co-transfection assay can be used to establish the EC50/IC50 values for potency and percent activity or inhibition for efficacy. Efficacy defines the activity of a compound relative to a high control ((N-(3-((4-fluorophenyl)-(naphthalene-2-sulfonyl)amino)propyl)-2,2-dimethylpropionamide)) or a low control (DMSO/vehicle). The dose response curves are generated from a 10 point curve with concentrations differing by ½ LOG units. Each point represents the average of 4 wells of data from a 384 well plate.
The data from this assay is fitted to the following equation, from which the EC50 value may be solved: Y=Bottom+(Top−Bottom)/(1+10^((log EC50-X)*HillSlope)).
The EC50/IC50 is therefore defined as the concentration at which an agonist or antagonist elicits a response that is halfway between the Top (maximum) and Bottom (baseline) values. The EC50/IC50 values represented are the averages of at least 2 and normally 3 independent experiments. The determination of the relative efficacy or % control for an agonist is by comparison to the maximum response achieved by ((N-(3-((4-fluorophenyl)-(naphthalene-2-sulfonyl)-amino)propyl)-2,2-dimethylpropionamide) that is measured individually in each dose response experiment.
Table 1 lists LXRβ EC50 values and % efficacy measurements in the cotransfection assay for examples of this invention.

[1] = CV-1 cells, relative to maximum response of high control N-(3-((4-fluorophenyl)-(naphthalene-2-sulfonyl)amino)propyl)-2,2-dimethylpropionamide

## Cc1nc(-c2ccc3c(c2)OC(F)(F)O3)c(-c2cc(-c3cc(F)c(CO)c(S(C)(=O)=O)c3)ccc2-c2cc(C(C)(C)C#N)nn2C)o1 [Example 67, 2-(5-(3-(4-(2,2-difluorobenzo[d][1,3]dioxol-5-yl)-2-methyloxazol-5-yl)-3′-fluoro-4′-(hydroxymethyl)-5′-(methylsulfonyl)biphenyl-4-yl)-1-methyl-1H-pyrazol-3-yl)-2-methylpropanenitrile]
  EC50: 24 nM
[1]
  LXRbeta % EFFICACY: 79%

## Cc1nc(-c2ccc3c(c2)OC(F)(F)O3)c(-c2cc(-c3ccc(CO)c(S(C)(=O)=O)c3)ccc2-n2nc(C(F)(F)F)cc2C)o1 [Example 330, (3′-(4-(2,2-difluorobenzo[d][1,3]dioxol-5-yl)-2-methyloxazol-5-yl)-4′-(5-methyl-3-(trifluoromethyl)-1H-pyrazol-1-yl)-3-(methylsulfonyl)biphenyl-4-yl)methanol]
  EC50: 5 nM
[1]
  Emax: 64%

## Cc1nc(-c2ccc(OC(F)(F)F)cc2)c(-c2cc(-c3cccc(C(C)(C)C(N)=O)c3)ccc2-n2ccc(C(F)(F)F)n2)o1 [Example 343, 2-methyl-2-(3′-(2-methyl-4-(4-(trifluoromethoxy)phenyl)oxazol-5-yl)-4′-(3-(trifluoromethyl)-1H-pyrazol-1-yl)biphenyl-3-yl) propanamide]
  EC50: 149 nM
[1]
  Emax: 74%

## Cc1nc(-c2ccc(OC(F)(F)F)cc2)c(-c2cc(-c3cc(F)c(CO)c(S(C)(=O)=O)c3)ccc2-n2ccc(C(F)(F)F)n2)o1 [Example 335, (3-fluoro-3′-(2-methyl-4-(4-(trifluoromethoxy)phenyl)oxazol-5-yl)-5-(methylsulfonyl)-4′-(3-(trifluoromethyl)-1H-pyrazol-1-yl)biphenyl-4-yl)methanol]
  EC50: 29 nM
[1]
  Emax: 71%

## CS(=O)(=O)c1cccc(-c2ccc(-n3ccc(C(N)=O)n3)c(-c3oc(C4CC4)nc3-c3ccc(OC(F)(F)F)cc3)c2)c1 [Example 361, 1-(3-(2-cyclopropyl-4-(4-(trifluoromethoxy)phenyl)oxazol-5-yl)-3′-(methylsulfonyl)-[1,1′-biphenyl]-4-yl)-1H-pyrazole-3-carboxamide]
  EC50: 652 nM
[1]
  Emax: 12%

## Cc1nc(-c2ccc3c(c2)OC(F)(F)O3)c(-c2cc(-c3cc(F)c(CO)c(S(C)(=O)=O)c3)ccc2-n2nc(C(F)(F)F)cc2Cl)o1 [Example 347, (4′-(5-chloro-3-(trifluoromethyl)-1H-pyrazol-1-yl)-3′-(4-(2,2-difluorobenzo[d] [1,3]dioxol-5-yl)-2-methyloxazol-5-yl)-3-fluoro-5-(methylsulfonyl)biphenyl-4-yl)methanol]
  EC50: 35 nM
[1]
  Emax: 92%

## Cc1nc(-c2ccc(OC(F)(F)F)cc2)c(-c2cc(-c3cc(F)c(CO)c(S(C)(=O)=O)c3)ccc2-n2nc(C(F)(F)F)cc2C2CC2)o1 [Example 323, (4′-(5-cyclopropyl-3-(trifluoromethyl)-1H-pyrazol-1-yl)-3-fluoro-3′-(2-methyl-4-(4-(trifluoromethoxy)phenyl)oxazol-5-yl)-5-(methylsulfonyl)biphenyl-4-yl)methanol]
  EC50: 948 nM
[1]
  Emax: 48%

## Cc1nc(-c2ccc3c(c2)OC(F)(F)O3)c(-c2cc(-c3cc(F)c(CO)c(S(C)(=O)=O)c3)ccc2-c2cc(CS(=O)(=O)N(C)C)nn2C)o1 [Example 69, 1-(5-(3-(4-(2,2-difluorobenzo[d][1,3]dioxol-5-yl)-2-methyloxazol-5-yl)-3′-fluoro-4′-(hydroxymethyl)-5′-(methylsulfonyl)-[1,1′-biphenyl]-4-yl)-1-methyl-1H-pyrazol-3-yl)-N,N-dimethylmethanesulfonamide]
  EC50: 160 nM
[1]
  Emax: 24%

## Cc1nc(-c2cc(-c3cccc(C4(C(N)=O)CC4)c3)ccc2-n2nc(C(F)(F)F)cc2Cl)c(-c2ccc(OC(F)(F)F)cc2)o1 [Example 418, 1-(4′-(5-chloro-3-(trifluoromethyl)-1H-pyrazol-1-yl)-3′-(2-methyl-5-(4-(trifluoromethoxy)phenyl)oxazol-4-yl)-[1,1′-biphenyl]-3-yl) cyclopropanecarboxamide]
  EC50: 728 nM
[1]
  Emax: 74%

## Cc1nc(-c2ccc(OC(F)(F)F)cc2)c(-c2cc(-c3cc(F)c(CO)c(S(C)(=O)=O)c3)ccc2-n2nc(C(F)(F)F)cc2Cl)o1 [Example 348, (4′-(5-chloro-3-(trifluoromethyl)-1H-pyrazol-1-yl)-3-fluoro-3′-(2-methyl-4-(4-(trifluoromethoxy)phenyl)oxazol-5-yl)-5-(methylsulfonyl)biphenyl-4-yl)methanol]
  EC50: 59 nM
[1]
  Emax: 57%

## Cn1nc(C(F)(F)C(N)=O)cc1-c1ccc(-c2cc(F)c(CO)c(S(C)(=O)=O)c2)cc1-c1oc(C2CC2)nc1-c1ccc2c(c1)OC(F)(F)O2 [Example 46, 2-(5-(3-(2-cyclopropyl-4-(2,2-difluorobenzo[d][1,3]dioxol-5-yl)oxazol-5-yl)-3′-fluoro-4′-(hydroxymethyl)-5′-(methylsulfonyl)biphenyl-4-yl)-1-methyl-1H-pyrazol-3-yl)-2,2-difluoroacetamide]
  EC50: 25 nM
[1]
  Emax: 45%

## Cc1nc(-c2ccc(OC(F)(F)F)cc2)c(-c2cc(-c3cccc(S(C)(=O)=O)c3)ccc2-n2nc(C(F)(F)F)cc2C)o1 [Example 331, 2-methyl-5-(4-(5-methyl-3-(trifluoromethyl)-1H-pyrazol-1-yl)-3′-(methylsulfonyl)biphenyl-3-yl)-4-(4-(trifluoromethoxy)phenyl)oxazole]
  EC50: 61 nM
[1]
  Emax: 82%

## Cc1nc(-c2ccc(OC(F)F)cc2)c(-c2cc(-c3cc(F)c(CO)c(S(C)(=O)=O)c3)ccc2-n2nc(C(F)(F)F)cc2C)o1 [Example 325, (3′-(4-(4-(difluoromethoxy)phenyl)-2-methyloxazol-5-yl)-3-fluoro-4′-(5-methyl-3-(trifluoromethyl)-1H-pyrazol-1-yl)-5-(methylsulfonyl)biphenyl-4-yl) methanol]
  EC50: 12 nM
[1]
  Emax: 78%
